Data: patent US20150336985A1, “FUNGICIDAL HETEROCYCLIC COMPOUNDS” (E. I. DU PONT DE NEMOURS AND COMPANY, priority 2012, published 2015)

Assays:
Plasmopara viticola = test: Test A: grape downy mildew, curative spray on inoculated grape seedlings, visual disease rating; type: in vivo, Plasmopara viticola (on grape seedlings); conditions: 40 ppm, rating 100 = 100% disease control, 0 = no disease control relative to the controls
Phytophthora infestans [1] = type: in vivo, Phytophthora infestans (on tomato seedlings); conditions: 40 ppm; tomato late blight, curative (17 h after inoculation); rating 100 = 100% disease control, 0 = no disease control relative to the controls
Phytophthora infestans [2] = type: in vivo, Phytophthora infestans (on tomato seedlings); conditions: 40 ppm; tomato late blight, preventive; rating 100 = 100% disease control, 0 = no disease control relative to the controls

Structure (SMILES) | Test A rating (disease control) (Plasmopara viticola) | Test B2 rating (disease control) (Phytophthora infestans [1]) | Test B1 rating (disease control) (Phytophthora infestans [2])
Cc1cc(C(F)(F)F)nn1CC(=O)N1CCC(c2nc3c(s2)CCC(Cc2c(F)cccc2F)C3=O)CC1 (single isomer, unassigned) [Compound 6, 5-[(2,6-difluorophenyl)methyl]-6,7-dihydro-2-[1-[2-[5-methyl-3-(trifluoromethylene)-1H-pyrazol-1-yl]acetyl]-4-piperidinyl]-4(5H)-benzothiazolone] | 78 | 78 | 100
Cc1cc(C(F)(F)F)nn1CC(=O)N1CCC(c2nc3c(s2)CCC(Cc2c(F)cccc2F)C3=O)CC1 (single isomer, unassigned) [Compound 5, 5-[(2,6-difluorophenyl)methyl]-6,7-dihydro-2-[1-[2-[5-methyl-3-(trifluoromethyl)-1H-pyrazol-1-yl]acetyl]-4-piperidinyl]-4(5H)-benzonthiazolone] | 99 | 99 | 100
Cc1cc(C(F)(F)F)nn1CC(=O)N1CCC(c2nc3c(s2)CCN(Cc2ccccc2)C3=O)CC1 [Compound 8, 6,7-dihydro-2-[1-[2-[5-methyl-3-(trifluoromethyl)-1H-pyrazol-1-yl]acetyl]-4-piperidinyl]-5-(phenylmethyl)thiazolo[4,5-c]pyridin-4(5H)-one] | 100 | 99 | 100
